In patent US20240209027A1, “PEPTIDE AND PEPTIDE-CONTAINING COMPOSITION” (PeptiAID Inc.,, priority 2021, published 2024):
Where two headings read alike, the source gives them in different places. Starred links: 1 amine or outer side, 2 acyl side, 3 side chain; linkers in the order of their positions; H or OH if unused. Positions of bridges follow the written chain, without caps; N, C: chain ends. Non-standard residues stand in square brackets, D forms with d. Residues, ends and D or L forms follow the SMILES beside them. Ala(piperidin-4-yl) = O=C([C@H](CC1CCN([*:3])CC1)N[*:1])[*:2]; Phe(4-COOH) = N[C@@H](Cc1ccc(C(=O)O)cc1)C(=O)O; Phe(4-F) = N[C@@H](Cc1ccc(F)cc1)C(=O)O; NMeE = CN[C@@H](CCC(=O)O)C(=O)O; Cha = N[C@@H](CC1CCCCC1)C(=O)O; Cit = NC(=O)NCCC[C@H](N)C(=O)O; NMeNle = CCCC[C@H](NC)C(=O)O; Aib = CC(C)(N)C(=O)O

Legend:
[1] = system: SARS-CoV-2 mouse subculture strain QHmusX; assay type: in vivo, BALB/c mice; settings: for lung histology (HE staining): day 10; for weight loss / respiratory symptoms: mouse, in vivo
[2] = system: SARS-CoV2 (USA WA1/2020 strain); settings: 72 h
[3] = system: SARS-CoV-2 (JPN/TY/WK-521 strain); assay type: cell-based; set-up: key: the case where the peptide was found to have anti-SARS-CoV-2 activity when added at 50 nM was designated as “2”; the case where no activity was found upon the addition at 50 nM but the activity was found at 1 μM was designated as “1”; settings: peptide added at 50 nM or 1 μM
[4] = molecular target: SARS-CoV-2-derived S protein, Wuhan strain (Severe acute respiratory syndrome coronavirus 2, UniProt P0DTC2); assay type: cell-based
[5] = system: SARS-CoV-2 (USA WA1/2020 strain); assay type: in vivo, Golden Syrian hamsters; settings: for Chronic active inflammation (anterior lobe): Mild / Chronic active inflammation (anterior lobe): Moderate / Chronic active inflammation (anterior lobe): Severe / Chronic active inflammation (posterior lobe): Mild / Chronic active inflammation (posterior lobe): Minor / Chronic active inflammation (posterior lobe): Moderate / Chronic active inflammation (posterior lobe): Severe: cases; for Gross findings of the lung: Mottled fading (number of animals) / Gross findings of the lung: No change (number of animals): 6 animals
in vitro = settings: African green monkey
[6] = molecular target: spike protein of SARS-CoV-2 (GENE Accession No. YP 009724390) (Severe acute respiratory syndrome coronavirus 2, UniProt P0DTC2); test: Screening for target protein-binding peptides
Source text: First, the spike protein of SARS-CoV-2 (GENE Accession No. YP 009724390) was set to a target and the screening method described in International Publication WO2014/119600, International Publication WO2012/033154, or International Publication WO 2007/066627 was used to discover the target protein-binding peptides.

SMILES: CCCC[C@H]1C(=O)NC(C)(C)C(=O)N[C@@H](CC2CCCCC2)C(=O)N[C@@H](Cc2ccc(F)cc2)C(=O)N[C@H](CC(=O)O)C(=O)N[C@@H](Cc2ccc(O)cc2)C(=O)N[C@@H](Cc2ccc(O)cc2)C(=O)N[C@@H](CCCNC(N)=O)C(=O)N[C@H](CCCCN)C(=O)N[C@@H](CC2CCCCC2)C(=O)N[C@H](C(=O)N[C@H](CCC(=O)O)C(=O)O)CSCC(=O)N(C)[C@@H](CCC(=O)O)C(=O)N1C [Peptide 5555_p028] ({CH2CO}-[NMeE][NMeNle][Aib][Cha][Phe(4-F)][dD]YY[Cit][dK][Cha]C[dE]-OH; thioether N-12)
- lung histology (HE staining) ([1]; 30 mg administration group): mild aggregation of cells (*) was observed around blood vessels in almost all lung lobes
- weight loss / respiratory symptoms [1]: the rate of weight loss improved significantly (P<0.05) after the fourth day
- IC50 [2]: 3.5 nM
- Anti-SARS-CoV-2 activity [3]: 2
- Imax: % (at 500 nM) [4]: 91%
- Chronic active inflammation (anterior lobe): Mild ([5]; 1 mg/kg (n = 6)): 5
- Chronic active inflammation (anterior lobe): Moderate ([5]; 1 mg/kg (n = 6)): 1
- Chronic active inflammation (anterior lobe): Severe ([5]; 1 mg/kg (n = 6)): 0
- Chronic active inflammation (posterior lobe): Mild ([5]; 1 mg/kg (n = 6)): 5
- Chronic active inflammation (posterior lobe): Minor ([5]; 1 mg/kg (n = 6)): 0
- Chronic active inflammation (posterior lobe): Moderate ([5]; 1 mg/kg (n = 6)): 1
- Chronic active inflammation (posterior lobe): Severe ([5]; 1 mg/kg (n = 6)): 0
- body weight, Mean ([5]; 1 mg/kg i.p., Day 0): 126.75
- body weight, Mean ([5]; 1 mg/kg i.p., Day 1): 124.03
- body weight, Mean ([5]; 1 mg/kg i.p., Day 2): 122.3
- body weight, Mean ([5]; 1 mg/kg i.p., Day 3): 120.17
- body weight, Mean ([5]; 1 mg/kg i.p., Day 4): 120.33
- body weight, Mean ([5]; 1 mg/kg i.p., Day 5): 120.75
- body weight, Mean ([5]; 1 mg/kg i.p., Day −6): 118.63
- Gross findings of the lung: Mottled fading (number of animals) ([5]; 1 mg/kg): 6 number of animals
- Gross findings of the lung: No change (number of animals) ([5]; 1 mg/kg): 0 number of animals
- SARS-CoV-2 genome copy number in lung (RT-qPCR), Log10 of Geometric mean (copy number/gram) ([5]; 1 mg/kg, Day 5): 8.15 copy number/gram
- SARS-CoV-2 genome copy number in lung vs solvent control ([5]; 5 mg/kg): statistically significant decrease
- Chronic active inflammation (anterior lobe): Mild ([5]; 5 mg/kg (n = 6)): 1
- Chronic active inflammation (anterior lobe): Moderate ([5]; 5 mg/kg (n = 6)): 5
- Chronic active inflammation (anterior lobe): Severe ([5]; 5 mg/kg (n = 6)): 0
- Chronic active inflammation (posterior lobe): Mild ([5]; 5 mg/kg (n = 6)): 3
- Chronic active inflammation (posterior lobe): Minor ([5]; 5 mg/kg (n = 6)): 2
- Chronic active inflammation (posterior lobe): Moderate ([5]; 5 mg/kg (n = 6)): 1
- Chronic active inflammation (posterior lobe): Severe ([5]; 5 mg/kg (n = 6)): 0
- Chronic active inflammation (posterior lobe): Minor ([5]; 5 mg/kg (n = 6), listed as 5555_028): Minor lung inflammation was observed in the posterior lobe in two cases
- body weight, Mean ([5]; 5 mg/kg i.p., Day 0): 126.52
- body weight, Mean ([5]; 5 mg/kg i.p., Day 1): 122.87
- body weight, Mean ([5]; 5 mg/kg i.p., Day 2): 120.87
- body weight, Mean ([5]; 5 mg/kg i.p., Day 3): 120.42
- body weight, Mean ([5]; 5 mg/kg i.p., Day 4): 118.52
- body weight, Mean ([5]; 5 mg/kg i.p., Day 5): 119.68
- body weight, Mean ([5]; 5 mg/kg i.p., Day −6): 118.67
- Gross findings of the lung: Mottled fading (number of animals) ([5]; 5 mg/kg): 6 number of animals
- Gross findings of the lung: No change (number of animals) ([5]; 5 mg/kg): 0 number of animals
- SARS-CoV-2 genome copy number in lung (RT-qPCR), Log10 of Geometric mean (copy number/gram) ([5]; 5 mg/kg, Day 5): 7.72 copy number/gram
- SARS-CoV-2 genome copy number in lung vs solvent control ([5]; 25 mg/kg): decreasing trend
- Chronic active inflammation (anterior lobe): Mild ([5]; 25 mg/kg (n = 6)): 2
- Chronic active inflammation (anterior lobe): Moderate ([5]; 25 mg/kg (n = 6)): 4
- Chronic active inflammation (anterior lobe): Severe ([5]; 25 mg/kg (n = 6)): 0
- Chronic active inflammation (posterior lobe): Mild ([5]; 25 mg/kg (n = 6)): 6
- Chronic active inflammation (posterior lobe): Minor ([5]; 25 mg/kg (n = 6)): 0
- Chronic active inflammation (posterior lobe): Moderate ([5]; 25 mg/kg (n = 6)): 0
- Chronic active inflammation (posterior lobe): Severe ([5]; 25 mg/kg (n = 6)): 0
- body weight, Mean ([5]; 25 mg/kg i.p., Day 0): 129.63
- body weight, Mean ([5]; 25 mg/kg i.p., Day 1): 126.85
- body weight, Mean ([5]; 25 mg/kg i.p., Day 2): 126.68
- body weight, Mean ([5]; 25 mg/kg i.p., Day 3): 126.22
- body weight, Mean ([5]; 25 mg/kg i.p., Day 4): 124.45
- body weight, Mean ([5]; 25 mg/kg i.p., Day 5): 121.62
- body weight, Mean ([5]; 25 mg/kg i.p., Day −6): 118.95
- Gross findings of the lung: Mottled fading (number of animals) ([5]; 25 mg/kg): 4 number of animals
- Gross findings of the lung: No change (number of animals) ([5]; 25 mg/kg): 2 number of animals
- Gross findings of the lung: No change (number of animals) ([5]; 25 mg/kg, listed as 5555_028): no lung fading was observed in two cases
- SARS-CoV-2 genome copy number in lung (RT-qPCR), Log10 of Geometric mean (copy number/gram) ([5]; 25 mg/kg, Day 5): 8.76 copy number/gram
- severity of lung inflammation vs solvent control ([5]; 1, 5, or 25 mg/kg i.p.): The severity of lung inflammation was reduced
- weight loss vs solvent control ([5]; hamster, in vivo): the weight loss was suppressed to the same degree at any of the doses

SMILES: CCCC[C@H]1C(=O)NC(C)(C)C(=O)N[C@@H](CC2CCCCC2)C(=O)N[C@@H](Cc2ccc(F)cc2)C(=O)NC(C)(C)C(=O)N[C@@H](Cc2ccc(O)cc2)C(=O)N[C@@H](Cc2ccc(O)cc2)C(=O)N[C@@H](Cc2ccc(C(=O)O)cc2)C(=O)N[C@@H](CC2CCNCC2)C(=O)N[C@@H](CC2CCCCC2)C(=O)N[C@H](C(=O)N[C@H](CCC(=O)O)C(N)=O)CSCC(=O)N(C)[C@@H](CCC(=O)O)C(=O)N1C [Peptide 5555_p020] ({CH2CO}-[NMeE][NMeNle][Aib][Cha][Phe(4-F)][Aib]YY[Phe(4-COOH)][Ala(piperidin-4-yl)][Cha]C[dE]-NH2; thioether N-12)
- lung histology (HE staining) ([1]; 10 mg administration group): mild aggregation of lymphocytes (*) was observed around blood vessels near the bronchioles in some lung lobes
- weight loss / respiratory symptoms [1]: no findings suggestive of weight loss or respiratory symptoms were observed
- IC50 [2]: 2.3 nM
- Anti-SARS-CoV-2 activity [3]: 2
- Imax: % (at 500 nM) [4]: 99%
- CC50 at 72 h (in vitro): > 1000 nM

SMILES: C[C@H]1C(=O)N(C)[C@@H](Cc2ccccc2)C(=O)N[C@@H](CO)C(=O)N[C@@H](CC2CCCCC2)C(=O)N[C@@H](Cc2ccc(O)cc2)C(=O)N[C@@H](CO)C(=O)N[C@@H](Cc2ccc(O)cc2)C(=O)N[C@@H](Cc2ccc(O)cc2)C(=O)N[C@@H](CCCNC(=N)N)C(=O)N[C@@H](CCCNC(=N)N)C(=O)N[C@@H](CC2CCCCC2)C(=O)N[C@H](C(=O)N[C@H](CCC(=O)O)C(N)=O)CSCC(=O)N1C [Peptide 5555_p000, MeA-MeF-S-Cha-Y-S-Y-Y-R-R-Cha-C]
- IC50 [2]: 23.9 nM
- binding to the spike protein of SARS-CoV-2 [6]: binds to the spike protein of SARS-CoV-2
- Anti-SARS-CoV-2 activity [3]: 2
- Imax: % (at 500 nM) [4]: 100%
- CC50 at 72 h (in vitro): > 1000 nM
